In test [1] the test system is MDA-MB-231 pLVX H2B-mCherry cells. Kind of test: Live cell fluorescence imaging after 24 hours treatment. Type of test: cell-based. The note with it: 24 hours at 10 μM, 1 μM, and 100 nM; FIG. 5. Here is the method: To investigate the impact of dye lipophilicity in the in vivo imaging context, we further treated MD-MBA 231 cells (with an H2B mCherry fluorescent reporter to localize the nucleus) with each compound for 24 hours at 10 μM, 1 μM, and 100 nM. Cells (MDA-MB-231 pLVX H2B-mCherry) lines were cultured using sterile technique in plastic dishes with standard cell-growth media [RPMI 1640 1× (+) phenol red, (+) 10% FBS, (+) 1% Pen-Strep]. Culture incubation during and in between experiments was performed in a sterile incubator (37° C., 5% CO2). All cultures used in imaging studies were confirmed to be mycoplasma-free prior to experimentation using a commercially available detection kit (MycoAlert, Lonza).
This property thereby limits non-specific staining effects that could have a confounding effect small-molecule imaging applications.

The subject of test [2] is MD-MBA 231 cell line. Description: Wash-out experiment, live-cell imaging. In kind it is cell-based. The note with it: 30 minutes incubation with 10 µM compound, three 30 minute washes; FIG. 6. Here is the method:
Further validation of the dyes' low-lipophilicity was achieved via a wash-out experiment with the MD-MBA 231 cell line. In this experiment, we investigated the ease of washing out the mono-alkoxy fluorophores within 30 minutes (e.g., within 15 minutes of the start of incubation).
Two days prior to imaging, cells were seeded at 20,000 cells/well on a 96-well Glass Bottom Microwell plate (MatriPlate, MGB096-1-2-LG-L) treated with 1× Attachment Factor (0.1% gelatin, Gibco). For these experiments, phenol-red free imaging media was used [RPMI 1640 1× (+) 10% FBS]. The day of imaging, each well was incubated for 30 minutes with […] of the title compound suspended in cell imaging media (final DMSO content=0.1%). Subsequently three washes were performed. Each wash consisted of removing spent media, adding fresh imaging media, and incubating the cells for 30 minutes. After the final wash, the media was aspirated, a thin layer of cell imaging media was added, and wells were rapidly imaged.
Live-cell imaging was performed on a Zeiss Axiovert 100M inverted epifluorescence microscope with a 40× objective. Per region of interest, a bright field view was acquired as well as GFP, TexasRed fluorescence channels.

Structures are written as SMILES.

Regarding `CC1=CC(C)=[N+]2C1=C(C)c1c(C)cc(C)n1[B-]2(F)OCCO` (stereo not shown) [AMC1029, 5-fluoro-5-(2-hydroxyethoxy)-1,3,7,9,10-pentamethyl-5H-dipyrrolo[1,2-c:2′,1′-f][1,3,2]diazaborinin-4-ium-5-uide], the “staining pattern of live cells” value in test [1] was “diffuse fluorescent signal”. `CC1=CC(C)=[N+]2C1=C(C)c1c(C)cc(C)n1[B-]2(F)F` [AMC1094, 1,3,5,7,8-Pentamethyl BODIPY]: the staining after wash-out entry in test [2] was “persistent non-specific staining”. For the same compound, the “staining pattern of live cells” value in test [1] is given as “significant non-specific staining of cellular compartments”. `CO[B-]1(F)n2c(C)cc(C)c2C(C)=C2C(C)=CC(C)=[N+]21` (stereo not shown) [AMC1028, 5-fluoro-5-methoxy-1,3,7,9,10-pentamethyl-5H-dipyrrolo[1,2-c:2′,1′-f][1,3,2]diazaborinin-4-ium-5-uide]: the “staining pattern of live cells” value in test [1] is recorded as “diffuse fluorescent signal”.

Values taken from patent US10005793B2, “Bodipy dyes for biological imaging” (The General Hospital Corporation, priority 2012, dated 2018).
